Values of other authors, collected in patent US20110293714A1, “PHARMACEUTICAL COMPOSITIONS SUITABLE FOR ORAL ADMINISTRATION OF DERIVATIZED INSULIN PEPTIDES” (priority 2008, published 2011).

Conditions: 293.2 Kelvin; static electric fields or relatively low frequencies

| Compound | Dielectric constant, ∈* |
| --- | --- |
| CC(O)CCO (stereo not shown) [1,3-butanediol] | 28.8 |
| OCCCO [1,3-propanediol] | 35.1 |
| CO [Methanol] | 33.0 |
| CC(C)O [Isopropanol] | 20.18 |
| CCO [Ethanol] | 25.3 |
| O [Water] | 80.1 |

Same assay, conditions: 303.2 Kelvin; static electric fields or relatively low frequencies

| Compound | Dielectric constant, ∈* |
| --- | --- |
| CC(O)CO (stereo not shown) [1,2-propanediol [propylene glycol], 1,2-propanediol] | 27.5 |
